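Cells were grown in 96-well plates and exposed to each compound for 48 hours at five concentrations; endpoints were interpolated linearly between bracketing concentrations, or set to the highest concentration if not reached. At the GI50, growth is halved.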 Calls of active or inactive are those of the source. No stated cut-off is given here; in the data, active = GI50 up to about 1.1 µM and inactive = higher.
Assays:
Assay in all cases: inhibition of tumour cell growth, NCI panel, 48 h
HOP-92 = tested on: HOP-92
PC-3 = tested on: PC-3
Hs-578T = tested on: Hs-578T
MDA-MB-231 = tested on: MDA-MB-231
LOX IMVI = tested on: LOX IMVI
SF-539 = tested on: SF-539
HOP-62 = tested on: HOP-62
SF-295 = tested on: SF-295
NCI/ADR-RES = tested on: NCI/ADR-RES
NCI-H522 = tested on: NCI-H522
KM12 = tested on: KM12
RXF 393 = tested on: RXF 393
UACC-257 = tested on: UACC-257
CAKI-1 = tested on: CAKI-1
SK-MEL-2 = tested on: SK-MEL-2
SF-268 = tested on: SF-268
K562 = tested on: K562
SK-OV-3 = tested on: SK-OV-3
NCI-H460 = tested on: NCI-H460
UACC-62 = tested on: UACC-62
SW-620 = tested on: SW-620
TK-10 = tested on: TK-10
SNB-19 = tested on: SNB-19
OVCAR-3 = tested on: OVCAR-3
DU-145 = tested on: DU-145
NCI-H226 = tested on: NCI-H226
HCC 2998 = tested on: HCC 2998
OVCAR-5 = tested on: OVCAR-5
A549 = tested on: A549
HCT-15 = tested on: HCT-15
NCI-H23 = tested on: NCI-H23
HT-29 = tested on: HT-29
SR = tested on: SR
EKVX = tested on: EKVX
MDA-N = tested on: MDA-N
HL-60 = tested on: HL-60
ACHN = tested on: ACHN
M14 = tested on: M14
A498 = tested on: A498
IGROV-1 = tested on: IGROV-1
MDA-MB-435 = tested on: MDA-MB-435
MCF7 = tested on: MCF7
SNB-75 = tested on: SNB-75
T47D = tested on: T47D
CCRF-CEM = tested on: CCRF-CEM
Malme-3M = tested on: Malme-3M
MOLT-4 = tested on: MOLT-4
SK-MEL-5 = tested on: SK-MEL-5
COLO 205 = tested on: COLO 205
786-0 = tested on: 786-0
U-251 = tested on: U-251
UO-31 = tested on: UO-31
OVCAR-8 = tested on: OVCAR-8
RPMI-8226 = tested on: RPMI-8226
SN12C = tested on: SN12C
HCT-116 = tested on: HCT-116
OVCAR-4 = tested on: OVCAR-4
SK-MEL-28 = tested on: SK-MEL-28

Oc1cc(-c2cccc(OC(F)(F)F)c2)nc2ccc(N3CCCC3)cc12
GI50 (HOP-92): 0.0731 µM (active)
GI50 (PC-3): 0.000318 µM (active)
GI50 (Hs-578T): 0.01 µM (active)
GI50 (MDA-MB-231): 0.00156 µM (active)
GI50 (LOX IMVI): 0.000205 µM (active)
GI50 (SF-539): 0.000147 µM (active)
GI50 (HOP-62): 0.000441 µM (active)
GI50 (SF-295): < 0.0001 µM (active)
GI50 (NCI/ADR-RES): 0.00016 µM (active)
GI50 (NCI-H522): 0.000376 µM (active)
GI50 (KM12): 0.000129 µM (active)
GI50 (RXF 393): 0.000116 µM (active)
GI50 (UACC-257): < 0.0001 µM (active)
GI50 (CAKI-1): 0.01 µM (active)
GI50 (SK-MEL-2): 0.000127 µM (active)
GI50 (SF-268): 0.000306 µM (active)
GI50 (K562): < 0.0001 µM (active)
GI50 (SK-OV-3): 0.000117 µM (active)
GI50 (NCI-H460): 0.0025 µM (active)
GI50 (UACC-62): < 0.0001 µM (active)
GI50 (SW-620): 0.00019 µM (active)
GI50 (TK-10): 0.00457 µM (active)
GI50 (SNB-19): 0.00018 µM (active)
GI50 (OVCAR-3): < 0.0001 µM (active)
GI50 (DU-145): 0.000316 µM (active)
GI50 (NCI-H226): 0.000142 µM (active)
GI50 (HCC 2998): 0.000547 µM (active)
GI50 (OVCAR-5): 0.000297 µM (active)
GI50 (A549): 0.0103 µM (active)
GI50 (HCT-15): 0.0004 µM
GI50 (NCI-H23): 0.0191 µM (active)
GI50 (HT-29): 0.000217 µM (active)
GI50 (SR): < 0.0001 µM (active)
GI50 (EKVX): 0.031 µM (active)
GI50 (MDA-N): < 0.0001 µM (active)
GI50 (HL-60): < 0.0001 µM (active)
GI50 (ACHN): 0.000622 µM (active)
GI50 (M14): 0.00012 µM (active)
GI50 (A498): 0.000322 µM (active)
GI50 (IGROV-1): 0.00131 µM (active)
GI50 (MDA-MB-435): < 0.0001 µM (active)
GI50 (MCF7): 0.0337 µM (active)
GI50 (SNB-75): < 0.0001 µM (active)
GI50 (T47D): 26.3 µM (inactive)
GI50 (CCRF-CEM): 0.00012 µM (active)
GI50 (Malme-3M): 0.000114 µM (active)
GI50 (MOLT-4): 0.000335 µM (active)
GI50 (SK-MEL-5): 0.000209 µM (active)
GI50 (COLO 205): 0.00303 µM (active)
GI50 (786-0): 0.00014 µM (active)
GI50 (U-251): < 0.0001 µM (active)
GI50 (UO-31): 0.000555 µM (active)
GI50 (OVCAR-8): 0.000426 µM (active)
GI50 (RPMI-8226): 0.000261 µM (active)
GI50 (SN12C): 0.00041 µM (active)
GI50 (HCT-116): 0.000121 µM (active)

CC(=O)OC1C2CCC3CC2C2(SCCS2)C31 (stereo not given)
GI50 (HOP-92): > 100 µM (inactive)
GI50 (PC-3): > 100 µM (inactive)
GI50 (OVCAR-4): > 100 µM (inactive)
GI50 (Hs-578T): > 100 µM (inactive)
GI50 (MDA-MB-231): 51.9 µM (inactive)
GI50 (LOX IMVI): > 100 µM (inactive)
GI50 (SF-539): 65.9 µM (inactive)
GI50 (HOP-62): 87.7 µM (inactive)
GI50 (SF-295): > 100 µM (inactive)
GI50 (NCI/ADR-RES): > 100 µM (inactive)
GI50 (NCI-H522): > 100 µM (inactive)
GI50 (KM12): > 100 µM (inactive)
GI50 (RXF 393): > 100 µM (inactive)
GI50 (UACC-257): > 100 µM (inactive)
GI50 (SK-MEL-2): > 100 µM (inactive)
GI50 (SF-268): > 100 µM (inactive)
GI50 (K562): > 100 µM (inactive)
GI50 (SK-MEL-28): > 100 µM (inactive)
GI50 (SK-OV-3): > 100 µM (inactive)
GI50 (NCI-H460): > 100 µM (inactive)
GI50 (UACC-62): > 100 µM (inactive)
GI50 (SW-620): > 100 µM (inactive)
GI50 (TK-10): > 100 µM (inactive)
GI50 (SNB-19): > 100 µM (inactive)
GI50 (OVCAR-3): > 100 µM (inactive)
GI50 (DU-145): > 100 µM (inactive)
GI50 (NCI-H226): > 100 µM (inactive)
GI50 (HCC 2998): > 100 µM (inactive)
GI50 (OVCAR-5): > 100 µM (inactive)
GI50 (A549): > 100 µM (inactive)
GI50 (HCT-15): > 100 µM
GI50 (NCI-H23): > 100 µM (inactive)
GI50 (HT-29): > 100 µM (inactive)
GI50 (SR): > 100 µM (inactive)
GI50 (EKVX): > 100 µM (inactive)
GI50 (MDA-N): > 100 µM (inactive)
GI50 (HL-60): 70.8 µM (inactive)
GI50 (ACHN): > 100 µM (inactive)
GI50 (M14): > 100 µM (inactive)
GI50 (A498): > 100 µM (inactive)
GI50 (IGROV-1): > 100 µM (inactive)
GI50 (MDA-MB-435): > 100 µM (inactive)
GI50 (MCF7): > 100 µM (inactive)
GI50 (T47D): > 100 µM (inactive)
GI50 (Malme-3M): > 100 µM (inactive)
GI50 (MOLT-4): > 100 µM (inactive)
GI50 (SK-MEL-5): > 100 µM (inactive)
GI50 (COLO 205): > 100 µM (inactive)
GI50 (786-0): > 100 µM (inactive)
GI50 (U-251): > 100 µM (inactive)
GI50 (UO-31): > 100 µM (inactive)
GI50 (OVCAR-8): > 100 µM (inactive)
GI50 (RPMI-8226): > 100 µM (inactive)
GI50 (SN12C): > 100 µM (inactive)
GI50 (HCT-116): > 100 µM (inactive)

O=C1c2[nH]c3ccc(Br)cc3c2CCN1Cc1ccc(Cl)cc1
GI50 (HOP-92): 16.2 µM (inactive)
GI50 (PC-3): 4.74 µM (inactive)
GI50 (OVCAR-4): 18.6 µM (inactive)
GI50 (Hs-578T): 17.1 µM (inactive)
GI50 (MDA-MB-231): 11.9 µM (inactive)
GI50 (LOX IMVI): 12.5 µM (inactive)
GI50 (SF-539): 10.7 µM (inactive)
GI50 (HOP-62): 12.9 µM (inactive)
GI50 (SF-295): 12.8 µM (inactive)
GI50 (NCI/ADR-RES): 17.2 µM (inactive)
GI50 (NCI-H522): 17.9 µM (inactive)
GI50 (KM12): 14.1 µM (inactive)
GI50 (RXF 393): 16.9 µM (inactive)
GI50 (UACC-257): 15.3 µM (inactive)
GI50 (CAKI-1): 19.5 µM (inactive)
GI50 (SK-MEL-2): 19.1 µM (inactive)
GI50 (SF-268): 12.7 µM (inactive)
GI50 (K562): 8.79 µM (inactive)
GI50 (SK-MEL-28): 14.7 µM (inactive)
GI50 (UACC-62): 14.1 µM (inactive)
GI50 (SW-620): 16.5 µM (inactive)
GI50 (TK-10): 13.7 µM (inactive)
GI50 (SNB-19): 15.1 µM (inactive)
GI50 (OVCAR-3): 15.2 µM (inactive)
GI50 (DU-145): 14.2 µM (inactive)
GI50 (HCC 2998): 14.5 µM (inactive)
GI50 (OVCAR-5): 12.5 µM (inactive)
GI50 (A549): 12.7 µM (inactive)
GI50 (HCT-15): 3.99 µM
GI50 (NCI-H23): 17.1 µM (inactive)
GI50 (HT-29): > 100 µM (inactive)
GI50 (SR): 8.79 µM (inactive)
GI50 (EKVX): > 100 µM (inactive)
GI50 (MDA-N): 14.7 µM (inactive)
GI50 (HL-60): 17.3 µM (inactive)
GI50 (ACHN): 10.8 µM (inactive)
GI50 (M14): 13.2 µM (inactive)
GI50 (A498): 17.1 µM (inactive)
GI50 (IGROV-1): 16.7 µM (inactive)
GI50 (MDA-MB-435): 14.4 µM (inactive)
GI50 (MCF7): 16.6 µM (inactive)
GI50 (SNB-75): 20.9 µM (inactive)
GI50 (T47D): 13.4 µM (inactive)
GI50 (CCRF-CEM): 12.3 µM (inactive)
GI50 (Malme-3M): 15.3 µM (inactive)
GI50 (SK-MEL-5): 10.9 µM (inactive)
GI50 (COLO 205): 17.7 µM (inactive)
GI50 (786-0): 11.3 µM (inactive)
GI50 (U-251): 12.5 µM (inactive)
GI50 (UO-31): 16.4 µM (inactive)
GI50 (OVCAR-8): 18.7 µM (inactive)
GI50 (RPMI-8226): > 10 µM (inactive)
GI50 (SN12C): 19.3 µM (inactive)
GI50 (HCT-116): 10.4 µM (inactive)
